Results taken from the NIST ThermoML archive (doi:10.1021/acs.jced.7b00106).

Conditions: Hot wire method

FC(F)(F)/C=C/Cl [(E)-1-chloro-3,3,3-trifluoroprop-1-ene]
Conditions	thermal conductivity [W/m/K]
402.34 K, 675 kPa, Fluid (supercritical or subcritical phases)	0.01919
402.35 K, 18638 kPa, Liquid	0.06815
402.35 K, 18644 kPa, Liquid	0.06814
402.36 K, 4694 kPa, Liquid	0.05768
402.36 K, 4699 kPa, Liquid	0.05769
402.37 K, 9102 kPa, Liquid	0.06154
402.37 K, 9105 kPa, Liquid	0.06157
402.37 K, 33596 kPa, Liquid	0.07616
402.38 K, 1202 kPa, Fluid (supercritical or subcritical phases)	0.01949
402.38 K, 1203 kPa, Fluid (supercritical or subcritical phases)	0.0195
402.38 K, 1623 kPa, Fluid (supercritical or subcritical phases)	0.02057
402.38 K, 1624 kPa, Fluid (supercritical or subcritical phases)	0.02063
402.38 K, 33572 kPa, Liquid	0.0761
402.41 K, 3571 kPa, Liquid	0.05649
402.41 K, 3575 kPa, Liquid	0.05649
402.42 K, 1105 kPa, Fluid (supercritical or subcritical phases)	0.01939
402.43 K, 1105 kPa, Fluid (supercritical or subcritical phases)	0.01943
402.43 K, 7089 kPa, Liquid	0.05988
402.44 K, 2633 kPa, Liquid	0.05536
402.44 K, 2641 kPa, Liquid	0.05542
402.44 K, 7097 kPa, Liquid	0.05991
402.44 K, 15789 kPa, Liquid	0.06632
402.44 K, 15790 kPa, Liquid	0.06635
402.44 K, 24987 kPa, Liquid	0.07171
402.44 K, 24992 kPa, Liquid	0.07169
402.46 K, 1000 kPa, Fluid (supercritical or subcritical phases)	0.01927
402.47 K, 1001 kPa, Fluid (supercritical or subcritical phases)	0.01932
402.47 K, 1515 kPa, Fluid (supercritical or subcritical phases)	0.02021
402.47 K, 1844 kPa, Liquid	0.0544
402.47 K, 1854 kPa, Liquid	0.05447
402.48 K, 1515 kPa, Fluid (supercritical or subcritical phases)	0.02026
402.5 K, 848 kPa, Fluid (supercritical or subcritical phases)	0.01923
402.5 K, 13367 kPa, Liquid	0.06472
402.5 K, 13371 kPa, Liquid	0.0647
402.51 K, 846 kPa, Fluid (supercritical or subcritical phases)	0.01926
402.52 K, 1406 kPa, Fluid (supercritical or subcritical phases)	0.01993
402.52 K, 1407 kPa, Fluid (supercritical or subcritical phases)	0.01994
402.53 K, 21658 kPa, Liquid	0.06987
402.54 K, 21643 kPa, Liquid	0.06986
402.56 K, 28722 kPa, Liquid	0.07362
402.57 K, 5983 kPa, Liquid	0.05888
402.57 K, 5985 kPa, Liquid	0.05888
402.57 K, 11101 kPa, Liquid	0.06313
402.57 K, 28741 kPa, Liquid	0.07367
402.58 K, 1306 kPa, Fluid (supercritical or subcritical phases)	0.01976
402.58 K, 1307 kPa, Fluid (supercritical or subcritical phases)	0.01973
402.58 K, 11088 kPa, Liquid	0.06313
402.6 K, 18623 kPa, Liquid	0.06809
402.61 K, 676 kPa, Fluid (supercritical or subcritical phases)	0.01925
402.61 K, 4688 kPa, Liquid	0.05758
402.61 K, 18624 kPa, Liquid	0.06809
402.61 K, 33585 kPa, Liquid	0.07607
402.62 K, 4693 kPa, Liquid	0.05763
402.62 K, 33568 kPa, Liquid	0.07592
402.63 K, 1203 kPa, Fluid (supercritical or subcritical phases)	0.01956
402.63 K, 9088 kPa, Liquid	0.06152
402.63 K, 9104 kPa, Liquid	0.06148
402.65 K, 1203 kPa, Fluid (supercritical or subcritical phases)	0.01959
402.66 K, 3574 kPa, Liquid	0.05645
402.66 K, 3575 kPa, Liquid	0.05645
402.69 K, 1104 kPa, Fluid (supercritical or subcritical phases)	0.01945
402.69 K, 1106 kPa, Fluid (supercritical or subcritical phases)	0.01948
402.69 K, 7089 kPa, Liquid	0.05985
402.69 K, 15783 kPa, Liquid	0.06633
402.69 K, 15792 kPa, Liquid	0.06633
402.69 K, 24993 kPa, Liquid	0.07169
402.7 K, 2638 kPa, Liquid	0.0554
402.7 K, 7091 kPa, Liquid	0.0599
402.7 K, 25001 kPa, Liquid	0.07172
402.71 K, 2639 kPa, Liquid	0.05542
402.74 K, 1850 kPa, Liquid	0.05446
402.75 K, 1000 kPa, Fluid (supercritical or subcritical phases)	0.01939
402.75 K, 1852 kPa, Liquid	0.05457
402.76 K, 13350 kPa, Liquid	0.06467
402.76 K, 13371 kPa, Liquid	0.06472
402.78 K, 848 kPa, Fluid (supercritical or subcritical phases)	0.01932
402.79 K, 846 kPa, Fluid (supercritical or subcritical phases)	0.01931
402.79 K, 21633 kPa, Liquid	0.06986
402.8 K, 21636 kPa, Liquid	0.06986
402.82 K, 28727 kPa, Liquid	0.07362
402.84 K, 5979 kPa, Liquid	0.05886
402.84 K, 5987 kPa, Liquid	0.05889
402.84 K, 11088 kPa, Liquid	0.0631
402.84 K, 28733 kPa, Liquid	0.07365
402.85 K, 11093 kPa, Liquid	0.06312
402.86 K, 18624 kPa, Liquid	0.06805
402.87 K, 18643 kPa, Liquid	0.06812
402.89 K, 4691 kPa, Liquid	0.05763
402.89 K, 4699 kPa, Liquid	0.05767
402.9 K, 9108 kPa, Liquid	0.06161
402.9 K, 33571 kPa, Liquid	0.07603
402.91 K, 674 kPa, Fluid (supercritical or subcritical phases)	0.01931
402.91 K, 9096 kPa, Liquid	0.0616
402.91 K, 33586 kPa, Liquid	0.07604
402.93 K, 3567 kPa, Liquid	0.05645
402.94 K, 3574 kPa, Liquid	0.05661
402.96 K, 15767 kPa, Liquid	0.06628
402.96 K, 24990 kPa, Liquid	0.07167
402.96 K, 25002 kPa, Liquid	0.07171
402.97 K, 7096 kPa, Liquid	0.05991
402.97 K, 15769 kPa, Liquid	0.0663
402.98 K, 2633 kPa, Liquid	0.05541
402.98 K, 7087 kPa, Liquid	0.05989
402.99 K, 2643 kPa, Liquid	0.05551
403 K, 1856 kPa, Liquid	0.0546
403.01 K, 1850 kPa, Liquid	0.05458
403.03 K, 21637 kPa, Liquid	0.06984
403.04 K, 13347 kPa, Liquid	0.06471
403.04 K, 13368 kPa, Liquid	0.06474
403.07 K, 21655 kPa, Liquid	0.06986
403.09 K, 28719 kPa, Liquid	0.0736
403.1 K, 28719 kPa, Liquid	0.07336
403.11 K, 5980 kPa, Liquid	0.05886
403.12 K, 5983 kPa, Liquid	0.05891
403.12 K, 11089 kPa, Liquid	0.06307
403.12 K, 11091 kPa, Liquid	0.06308
403.14 K, 18630 kPa, Liquid	0.06809
403.15 K, 18626 kPa, Liquid	0.06808
403.17 K, 4697 kPa, Liquid	0.05766
403.18 K, 4698 kPa, Liquid	0.05772
403.18 K, 9094 kPa, Liquid	0.06153
403.19 K, 9095 kPa, Liquid	0.06162
403.19 K, 33557 kPa, Liquid	0.076
403.2 K, 33576 kPa, Liquid	0.07601
403.23 K, 3569 kPa, Liquid	0.0565
403.24 K, 3565 kPa, Liquid	0.05654
403.24 K, 15779 kPa, Liquid	0.06628
403.24 K, 25000 kPa, Liquid	0.07167
403.25 K, 15789 kPa, Liquid	0.06631
403.25 K, 24985 kPa, Liquid	0.07165
403.27 K, 2641 kPa, Liquid	0.05557
403.27 K, 7090 kPa, Liquid	0.05988
403.27 K, 7094 kPa, Liquid	0.05994
403.28 K, 2638 kPa, Liquid	0.05558
403.3 K, 1852 kPa, Liquid	0.05468
403.31 K, 1856 kPa, Liquid	0.05476
403.32 K, 13355 kPa, Liquid	0.06468
403.33 K, 13350 kPa, Liquid	0.06467
403.33 K, 21631 kPa, Liquid	0.0698
403.33 K, 21643 kPa, Liquid	0.06984
403.37 K, 28710 kPa, Liquid	0.07356
403.37 K, 28735 kPa, Liquid	0.0736
403.39 K, 11081 kPa, Liquid	0.06304
403.4 K, 5980 kPa, Liquid	0.05891
403.4 K, 11095 kPa, Liquid	0.06309
